Data: patent US4170649A, “1,4-Benzodiazepine derivatives, pharmaceutical compositions thereof, and process for their preparation” (Kali-Chemie Pharma GmbH, priority 1977, dated 1979)
Where two headings read alike, the source gives them in different places.

Experiments:
[1] = Acute 7-day toxicity in mice (LD50); conditions: mouse, in vivo, white NMRI-mice not fed
Experimental: The acute 7-day-toxicity in white NMRI-mice is determined after administration of a single dose of the test compound per os or i.p. to the mice which had not been fed. The calculation of the LD50 is carried out by probitanalysis by means of electronic data processing (see L. Cavelli-Sforza, Gustav Fischer-Verlag, Stuttgart, (1964), Grundbegriffe der Biometrie, p. 153).

[2] = tested on: isolation-induced aggressiveness in mice; assay: Inhibition of isolation-induced aggressiveness in mice (anti-aggressive and anxiety-relieving activity); type: in vivo; conditions: Mus musculus, oral, isolated mice, 50% reduction of aggressive behavior
Experimental: Prior to carrying out the test, the mice are kept in strict isolation in single cages for a period of 4 weeks. After this period of isolation, mice which have been kept isolated spontaneously attack other mice which are introduced into their cage and had not been previously isolated. The test compounds are orally administered to the isolated mice and after a period of 30 minutes or 60 minutes after application, the dose which leads to a 50% reduction of the aggressive behavior is determined (according to a modified method described by Weischer and Opitz, Arch. int. Pharmacodyn. 195, 252 (1972)). The results which are obtained in this test are a valid indication of the activity of the tested compounds in relieving anxiety and stress-induced tensions.

[3] = tested on: hexobarbital-induced sleep in mice; assay: CNS-depressant properties: prolongation of hexobarbital-induced sleep in mice; type: in vivo; conditions: Mus musculus, 0.5 h, oral, 64 mg/kg hexobarbital i.v. 30 minutes after application, 50% of animals with side-posture 4 times as long as control
Experimental: The test compounds are orally applied to mice. Additionally, a dose of 64 mg/kg of hexobarbital is injected, i.v., into the animals 30 minutes after application of the test compound. The point of time at which the animals lie down on their side and the duration of this side-posture are determined and are compared with the postural behavior of animals which are treated only with hexobarbital. The ED50 is defined as the dose which causes 50% of the animals to maintain the side-wise posture for a period of time which is 4 times as long as the period of time during which the control animals remain in their side-wise lying posture (see J. W. Kemp, M. Tannhaeuser and E. A. Swinyard, Arch. int. Pharmacodyn. 193 (1971), p. 37-47).

[4] = tested on: pentetrazole-induced convulsions; assay: Anti-convulsive activity against pentetrazole-induced spasms; type: in vivo; conditions: Mus musculus; oral, mice; 100 mg/kg pentetrazole s.c. 60 minutes after application; observed 45 minutes; read-out: Inhibition of Pentetrazole-induced convulsions ED50
Experimental: The protective effect of the test compounds against convulsion is determined after oral application to groups of six (6) mice each. 60 minutes after application of the test compounds, a doses of 100 mg/kg of pentetrazole is subcutaneously injected. The occurrance of clonic and tonic convulsions is observed during a total period of 45 minutes. the protective effect of the test compounds against convulsion is determined by comparison with simultaneously performed tests in control-animals. The effective dose ED50 is calculated from the probitlogarithmic dosage curves (according to a modified method disclosed by J. E. Blum et al, Arzneimittel-Forsch. 23, 377 (1973)).
The results which are obtained according to the above method, provide an indication of the anti-convulsive activity of the test compounds. In the pharmacological art, it is well-known that this anti-convulsive activity in animals is an important criterion for evaluating the clinical tranquilizer activity of compounds (see A. Suria and E. Costa, Journal de Pharmacologie, Suppl. No. 1, 5, 94 (1974) and G. Zbinden and L. O. Randall, Advances in Pharmacol. 5, 257, (1967)). The test results given in Table II show a clear superiority of the compounds according to the present invention as compared to chlordiazepoxide.

[5] = ip, single dose i.p., read-out: LD50 i.p.
[6] = po, single dose per os, read-out: LD50 p.o.
[7] = 0.5 h, 30 minutes after application, read-out: Inhibition of isolation-induced aggressiveness in mice ED50 (30')
[8] = 1 h, 60 minutes after application, read-out: Inhibition of isolation-induced aggressiveness in mice ED50 (60')

| Structure (SMILES) | LD50 at 168 h [1, 5] [mg/kg] | LD50 at 168 h [1, 6] [mg/kg] | ED50 [2, 7] [mg/kg] | ED50 [2, 8] [mg/kg] | ED50 [3] [mg/kg] | ED50 [4] [mg/kg] |
| --- | --- | --- | --- | --- | --- | --- |
| CN1C(=CC(N)=O)CN=C(c2ccccc2F)c2cc(Cl)ccc21 [Compound No. 3, 7-chloro-1-methyl-2-carbamoylmethylene-5-(2'-fluorophenyl)-1,3-dihydro-2H-1,4-benzodiazepine] | 572 | > 1470 | 2.1 | 3.9 | 1.6 | 0.4 |
| CN1C(=CC(N)=O)CN=C(c2ccccc2Cl)c2cc(Br)ccc21 [Compound No. 5, 7-bromo-1-methyl-2-carbamoylmethylene-5-(2'-chlorophenyl)-1,3-dihydro-2H-1,4-benzodiazepine] | > 1600 | > 1470 | 5.4 | 4.6 | 1.3 | 0.3 |
| CN1C(=CC(N)=O)CN=C(c2ccccc2C(F)(F)F)c2cc(Cl)ccc21 [Compound No. 4, 7-chloro-1-methyl-2-carbamoylmethylene-5-(2'-trifluoromethylphenyl)-1,3-dihydro-2H-1,4-benzodiazepine] | 287 | > 1470 | 31.1 | 31.1 | 3.1 | 0.3 |
| CN1C(=CC(N)=O)CN=C(c2ccccc2Cl)c2cc([N+](=O)[O-])ccc21 [Compound No. 7, 7-nitro-1-methyl-2-carbamoylmethylene-5-(2'-chlorophenyl)-1,3-dihydro-2H-1,4-benzodiazepine] |  | > 1470 |  |  | 2.5 | 1 |
| CN1C(=CC(N)=O)CN=C(c2ccccc2F)c2cc(Br)ccc21 [Compound No. 6, 7-bromo-1-methyl-2-carbamoylmethylene-5-(2'-fluorophenyl)-1,3-dihydro-2H-1,4-benzodiazepine] | 574 | > 1470 | 4.8 | 5.7 | 2.6 | 0.4 |
| CN1C(=CC(N)=O)CN=C(c2ccccc2Cl)c2cc(Cl)ccc21 [Compound No. 2, 7-chloro-1-methyl-2-carbamoylmethylene-5-(2'-chlorophenyl)-1,3-dihydro-2H-1,4-benzodiazepine] | 410 | > 1000 | 2.2 | 3.4 | 5 | 0.1 |
| CN1C(=CC(N)=O)CN=C(c2ccccc2)c2cc(Cl)ccc21 [Compound No. 1, 7-chloro-1-methyl-2-carbamoylmethylene-5-phenyl-1,3-dihydro-2H-1,4-benzodiazepine] | 288 | > 1470 | 12.2 | 9.6 | 3.2 | 2.4 |
| CNC1=Nc2ccc(Cl)cc2C(c2ccccc2)=[N+]([O-])C1 [comparison, 7-chloro-2-methylamino-5-phenyl-3H-1,4-benzodiazepine-4-oxide, reference compound] | 300 | 903 | 60 | 47 | 6 | 5 |
